# Source: patent publication US8119168B2, “Personal care compositions comprising a zinc containing material in an aqueous surfactant composition” (The Procter & Gamble Company, priority 2002, dated 2012)
# Test: Zincon metallochromic dye test for available Zn^2+ (visual color change orange to blue)
# Format: physicochemical
# Settings: ZCM ~30 mg/10 ml water, pH 7-11, binary visual assessment
# Text: Zinc-containing materials (ZCMs) differ with respect to how strongly the zinc ion (Zn^2+) is held by counterions in the crystal lattice. The benefits discussed herein depend upon having available Zn^2+. […] The response is a binary visual assessment of whether or not the color changes indicating zinc-binding.
# The method is based on the commercial metallochromic dye zincon. Zincon changes from an orange color to blue upon binding zinc and provides the basis for detecting available Zn^2+:
# The specific procedure involves making a stock solution of zincon in ethanol (˜50 mg/10 ml ethanol). The ZCM is then added to water (˜30 mg/10 ml water) and agitated (pH range should be 7-11). Three to four drops of zincon solution are then added to the ZCM in water, agitated and a visual assessment of color change made.
row,Compound,available Zn^2+ (zincon color change)
1,[O]=[Zn] [Zinc Oxide],have available zinc
2,O=C([O-])CN(CCN(CC(=O)[O-])CC(=O)[O-])CC(=O)[O-].[Na+].[Na+].[Zn+2] [zinc EDTA],not having available Zn^2+
3,CC(=O)[O-].CC(=O)[O-].[Zn+2] [zinc acetate],have available zinc
4,N=C(N)NCCC[C@H](N)C(=O)O.[Zn] [zinc arginine],have available zinc
5,[Cl-].[Cl-].[Zn+2] [zinc chloride],have available zinc
6,O=C([O-])CC(O)(CC(=O)[O-])C(=O)[O-].O=C([O-])CC(O)(CC(=O)[O-])C(=O)[O-].[Zn+2].[Zn+2].[Zn+2] [zinc citrate],have available zinc
7,[OH-].[OH-].[Zn+2] [zinc hydroxide],have available zinc
8,CC(O)C(=O)[O-].CC(O)C(=O)[O-].[Zn+2] (stereo not drawn) [zinc lactate],have available zinc
9,OCC(O)CO.[Zn] [zinc monoglycerolate],have available zinc
10,O=C([O-])C(=O)[O-].[Zn+2] [zinc oxalate],have available zinc
11,O=S(=O)([O-])[O-].[Zn+2] [zinc sulfate],have available zinc
12,zinc hexaborate,have available zinc
13,zinc histadine,have available zinc
14,zinc phytate,not having available Zn^2+
15,zinc stearate,have available zinc

# Test: Relative zinc lability by xylenol orange (XO) color change, absorbance at 572 nm
# Format: physicochemical
# Settings: 6% sodium lauryl sulfate
# Procedure: Zinc lability is a measure of the chemical availability of zinc ion. […] The use of partially soluble forms of zinc salts and/or incorporation in a matrix with potential complexants generally lowers the zinc lability substantially below the defined 100% maximum.
# Zinc lability is assessed by combining a diluted zinc-containing solution or dispersion with the metallochromic dye xylenol orange (XO) and measurement of the degree of color change under specified conditions. The magnitude of color formation is proportional to the level of labile zinc. The procedure developed has been optimized for aqueous surfactant formulations but may be adapted to other physical product forms as well.
# A spectrophotometer is used to quantify the color change at 572 nm, the wavelength of optimum color change for XO. The spectrophotometer is set to zero absorbance at 572 nm utilizing a product control as close in composition to the test product except excluding the potentially labile form of zinc. The control and test products are then treated identically as follows. A 50 μl product sample is dispensed into a jar and 95 ml of deaerated, distilled water are added and stirred. 5 mL of a 23 mg/mL xylenol orange stock solution at pH 5.0 is pipetted into the sample jar; this is considered time 0. The pH is then adjusted to 5.50±0.01 using dilute HCl or NaOH. After 10.0 minutes, a portion of the sample is filtered (0.45μ) and the absorbance measured at 572 nm. The measured absorbance is then compared to a separately measured control to determine the relative zinc lability (zero TO 100%). The 100% lability control is prepared in a matrix similar to the test products but utilizing a soluble zinc material (such as zinc sulfate) incorporated at an equivalent level on a zinc basis. The absorbance of the 100% lability control is measured as above for the test materials.
row,Compound,Relative Zinc Lability (%) Simple Surfactant System Alone
1,O=C([O-])[O-].O=C([O-])[O-].[OH-].[OH-].[OH-].[OH-].[OH-].[OH-].[Zn+2].[Zn+2].[Zn+2].[Zn+2].[Zn+2] [Hydrozincite],37.0%
2,[O]=[Zn] [Zinc Oxide],1.5%

# Same assay, conditions: 6% sodium lauryl sulfate plus sodium bicarbonate at 0.2% level
row,Compound,Relative Zinc Lability (%) Simple Surfactant System Plus Sodium Bicarbonate
1,[O]=[Zn] [Zinc Oxide],33.2%
